Data on 14 molecules can be found in ChEMBL document CHEMBL4602695, “Discovery and SARs of 5-Chloro-N4-phenyl-N2-(pyridin-2-yl)pyrimidine-2,4-diamine Derivatives as Oral Available and Dual CDK 6 and 9 Inhibitors with Potent Antitumor Activity” (J Med Chem, 2020).

Structures are written as SMILES. Bounds are passed on as bounds.

CDK6/cyclin D3, sequence (P30281 whole entry): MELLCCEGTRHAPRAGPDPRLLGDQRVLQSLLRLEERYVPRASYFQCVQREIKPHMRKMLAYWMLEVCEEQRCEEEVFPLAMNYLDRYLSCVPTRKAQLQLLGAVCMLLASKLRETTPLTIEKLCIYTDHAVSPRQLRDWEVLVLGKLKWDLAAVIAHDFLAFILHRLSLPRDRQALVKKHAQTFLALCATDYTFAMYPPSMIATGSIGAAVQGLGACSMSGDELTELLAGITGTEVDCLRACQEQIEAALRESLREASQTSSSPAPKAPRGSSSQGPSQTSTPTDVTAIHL
CDK6/cyclin D3, sequence (Q00534 whole entry): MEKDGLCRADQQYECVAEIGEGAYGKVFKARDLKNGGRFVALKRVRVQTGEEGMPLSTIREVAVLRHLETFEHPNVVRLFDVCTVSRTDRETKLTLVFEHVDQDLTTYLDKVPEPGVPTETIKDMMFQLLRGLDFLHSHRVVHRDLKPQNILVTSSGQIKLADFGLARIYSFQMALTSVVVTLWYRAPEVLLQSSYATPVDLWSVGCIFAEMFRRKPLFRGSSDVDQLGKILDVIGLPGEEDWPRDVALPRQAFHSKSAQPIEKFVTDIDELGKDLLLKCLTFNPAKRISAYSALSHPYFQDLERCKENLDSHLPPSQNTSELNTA

The first data set concerns Jurkat. Description: Antiproliferative activity against human Jurkat cells assessed as inhibition of cell proliferation measured after 48 hrs by CCK8 assay. In kind it is functional, cell-based.
Conditions: not given
On the technique in general: Tetrazolium assays rely on reduction of a dye to a coloured formazan, in cell work by metabolically active cells.
As a reminder, the GI50 is the concentration giving 50% growth inhibition. In the case of `Cc1ccccc1Nc1nc(Nc2ccc(N3CCN(C)CC3)cc2)ncc1Cl`, the GI50 came to 13.7 µM.
The same measure, in the same setting: as for `CC(C)c1ccc(Nc2nc(Nc3ccc(N4CCN(C)CC4)cn3)ncc2Cl)cc1`, the figure is 7.53 µM; as for `CCN1CCN(c2ccc(Nc3ncc(Cl)c(Nc4ccccc4C)n3)cc2)CC1`, 2.06 µM; as for `Cc1ccccc1Nc1nc(Nc2ccc(N3CCCN(C)CC3)cc2)ncc1Cl`, 11.3 µM.
For the molecule `CN1CCN(c2ccc(Nc3ncc(Cl)c(NCc4ccc(C(F)(F)F)cc4)n3)nc2)CC1`, the GI50 came to 7.96 µM.
On to `COc1ccccc1CNc1nc(Nc2ccc(N3CCN(C)CC3)cn2)ncc1Cl`, for which the GI50 came to 10.8 µM.
Take `CN1CCN(c2ccc(Nc3ncc(Cl)c(NCc4ccco4)n3)nc2)CC1`: the GI50 was over 100 µM.
For the molecule `CN1CCN(c2ccc(Nc3ncc(Cl)c(NCc4ccc(F)cc4)n3)nc2)CC1`, the GI50 was over 100 µM.
Take `CN1CCN(c2ccc(Nc3ncc(Cl)c(NCCc4ccccc4F)n3)nc2)CC1`: the GI50 turned out to be 14.3 µM.
As to `Cc1ccccc1Nc1nc(Nc2cccnc2)ncc1Cl`, the GI50 was 38.6 µM.
`Cc1ccccc1Nc1nc(NCCc2ccccn2)ncc1Cl`: the GI50 is over 100 µM.
Regarding `CN1CCN(c2ccc(Nc3ncc(Cl)c(NCc4ccccc4)n3)nc2)CC1`, the GI50 was over 100 µM.
On to `Cc1ccccc1Nc1nc(NC2CCCCC2)ncc1Cl`, for which the GI50 was over 100 µM.
`Cc1ccccc1Nc1nc(Nc2ccc(N3CCCCC3)cc2)ncc1Cl`: the GI50 is over 100 µM.

A further data set relates to MCF7. Description: Antiproliferative activity against human MCF7 cells assessed as inhibition of cell proliferation measured after 48 hrs by CCK8 assay. The conditions noted are these: MCF7, 48 h. In kind it is functional, cell-based.
Consider `Cc1ccccc1Nc1nc(Nc2ccc(N3CCN(C)CC3)cc2)ncc1Cl`, for which the GI50 amounted to 20.6 µM.
For `CC(C)c1ccc(Nc2nc(Nc3ccc(N4CCN(C)CC4)cn3)ncc2Cl)cc1`, the GI50 stood at 1.88 µM.
Regarding `CCN1CCN(c2ccc(Nc3ncc(Cl)c(Nc4ccccc4C)n3)cc2)CC1`, the GI50 is 3.16 µM.
As for `Cc1ccccc1Nc1nc(Nc2ccc(N3CCCN(C)CC3)cc2)ncc1Cl`, the GI50 was 4.29 µM.
Same read-out and setting: as for `CN1CCN(c2ccc(Nc3ncc(Cl)c(NCc4ccc(C(F)(F)F)cc4)n3)nc2)CC1`, the figure is 28.4 µM; as for `COc1ccccc1CNc1nc(Nc2ccc(N3CCN(C)CC3)cn2)ncc1Cl`, over 100 µM; as for `CN1CCN(c2ccc(Nc3ncc(Cl)c(NCc4ccco4)n3)nc2)CC1`, 21.3 µM.
On to `CN1CCN(c2ccc(Nc3ncc(Cl)c(NCc4ccc(F)cc4)n3)nc2)CC1`, for which the GI50 came to 19.3 µM.
Take `CN1CCN(c2ccc(Nc3ncc(Cl)c(NCCc4ccccc4F)n3)nc2)CC1`: the GI50 came out at 8.73 µM.
On the same count and under the same terms, as for `Cc1ccccc1Nc1nc(Nc2cccnc2)ncc1Cl`, the figure is 56.5 µM.
In the case of `Cc1ccccc1Nc1nc(NCCc2ccccn2)ncc1Cl`, the GI50 is over 100 µM.
For the molecule `CN1CCN(c2ccc(Nc3ncc(Cl)c(NCc4ccccc4)n3)nc2)CC1`, the GI50 turned out to be 17.3 µM.
Consider `Cc1ccccc1Nc1nc(NC2CCCCC2)ncc1Cl`, for which the GI50 is over 100 µM.
For `Cc1ccccc1Nc1nc(Nc2ccc(N3CCCCC3)cc2)ncc1Cl`, the GI50 is over 100 µM.

Tested on in a further data set: not listed separately
Description: Cytotoxicity against human L02 cells assessed as inhibition of cell proliferation measured after 48 hrs by CCK8 assay. In kind it is cell-based.
Conditions: not given
Turning to `Cc1ccccc1Nc1nc(Nc2ccc(N3CCN(C)CC3)cc2)ncc1Cl`, the concentration for 50% growth inhibition (GI50) at 48 h was found to be 6.51 µM.
The same measure, in the same setting: to `CC(C)c1ccc(Nc2nc(Nc3ccc(N4CCN(C)CC4)cn3)ncc2Cl)cc1` belongs 13.7 µM; to `CCN1CCN(c2ccc(Nc3ncc(Cl)c(Nc4ccccc4C)n3)cc2)CC1`, 0.97 µM.
As for `Cc1ccccc1Nc1nc(Nc2ccc(N3CCCN(C)CC3)cc2)ncc1Cl`, the GI50 at 48 h worked out at 1.24 µM.
Regarding `CN1CCN(c2ccc(Nc3ncc(Cl)c(NCc4ccc(C(F)(F)F)cc4)n3)nc2)CC1`, the GI50 at 48 h was 26.2 µM.
As to `COc1ccccc1CNc1nc(Nc2ccc(N3CCN(C)CC3)cn2)ncc1Cl`, the GI50 at 48 h is 25.5 µM.
On the same count and under the same terms, as for `CN1CCN(c2ccc(Nc3ncc(Cl)c(NCc4ccco4)n3)nc2)CC1`, the figure is 45.7 µM.
Consider `CN1CCN(c2ccc(Nc3ncc(Cl)c(NCc4ccc(F)cc4)n3)nc2)CC1`, for which the GI50 at 48 h amounted to 39.7 µM.
`CN1CCN(c2ccc(Nc3ncc(Cl)c(NCCc4ccccc4F)n3)nc2)CC1`: the GI50 at 48 h is 9.67 µM.
As for `Cc1ccccc1Nc1nc(Nc2cccnc2)ncc1Cl`, the GI50 at 48 h is 22.9 µM.
Turning to `Cc1ccccc1Nc1nc(NCCc2ccccn2)ncc1Cl`, the GI50 at 48 h was over 100 µM.
On the same count and under the same terms, to `CN1CCN(c2ccc(Nc3ncc(Cl)c(NCc4ccccc4)n3)nc2)CC1` belongs 20.3 µM; to `Cc1ccccc1Nc1nc(NC2CCCCC2)ncc1Cl`, over 100 µM.
Take `Cc1ccccc1Nc1nc(Nc2ccc(N3CCCCC3)cc2)ncc1Cl`: the GI50 at 48 h was determined as 5.69 µM.

Another data set has as its target CDK6/cyclin D3 (Homo sapiens, UniProt Q00534).
Assay: not given
Conditions: not given
Details: species or system Sf9.
The term IC50 denotes the point on the concentration scale where inhibition reaches its midpoint. Regarding `Cc1ccccc1Nc1nc(Nc2ccc(N3CCN(C)CC3)cc2)ncc1Cl`, 0.143 µM corresponded to half-maximal inhibition (IC50).
With `CC(C)c1ccc(Nc2nc(Nc3ccc(N4CCN(C)CC4)cn3)ncc2Cl)cc1`, the IC50 worked out at 0.126 µM.
In turn, `CCN1CCN(c2ccc(Nc3ncc(Cl)c(Nc4ccccc4C)n3)cc2)CC1` registered an IC50 of 0.114 µM.
`Cc1ccccc1Nc1nc(Nc2ccc(N3CCCN(C)CC3)cc2)ncc1Cl` came in with an IC50 of 0.536 µM. This IC50 is about 4.7-fold higher than that of the molecule before.
For `CN1CCN(c2ccc(Nc3ncc(Cl)c(NCc4ccc(C(F)(F)F)cc4)n3)nc2)CC1`, it took 8.93 µM to reach half-maximal inhibition (IC50).
As to `COc1ccccc1CNc1nc(Nc2ccc(N3CCN(C)CC3)cn2)ncc1Cl`, the half-maximal inhibitory concentration (IC50) was over 10 µM.
With `CN1CCN(c2ccc(Nc3ncc(Cl)c(NCc4ccco4)n3)nc2)CC1`, it took 0.279 µM to reach half-maximal inhibition (IC50).
On to `CN1CCN(c2ccc(Nc3ncc(Cl)c(NCc4ccc(F)cc4)n3)nc2)CC1`, for which the IC50 is over 10 µM.
`CN1CCN(c2ccc(Nc3ncc(Cl)c(NCCc4ccccc4F)n3)nc2)CC1` registered an IC50 of 3.71 µM.
For the molecule `Cc1ccccc1Nc1nc(Nc2cccnc2)ncc1Cl`, half-maximal inhibition (IC50) required 6.65 µM. Against the preceding molecule, the IC50 is about 1.8-fold higher.
The same measure, in the same setting: as for `Cc1ccccc1Nc1nc(NCCc2ccccn2)ncc1Cl`, the figure is over 10 µM; as for `CN1CCN(c2ccc(Nc3ncc(Cl)c(NCc4ccccc4)n3)nc2)CC1`, over 10 µM.
`Cc1ccccc1Nc1nc(NC2CCCCC2)ncc1Cl` showed an IC50 of over 10 µM.
Consider `Cc1ccccc1Nc1nc(Nc2ccc(N3CCCCC3)cc2)ncc1Cl`, for which the IC50 was over 10 µM.

The next data set has as its system MDA-MB-231. Nature of the data set: Antiproliferative activity against human MDA-MB-231 cells assessed as inhibition of cell proliferation measured after 48 hrs by CCK8 assay. It counts as functional, cell-based. The settings on record: MDA-MB-231, 48 h.
Consider `Cc1ccccc1Nc1nc(Nc2ccc(N3CCN(C)CC3)cc2)ncc1Cl`, for which the GI50 was determined as 7.02 µM.
Take `CC(C)c1ccc(Nc2nc(Nc3ccc(N4CCN(C)CC4)cn3)ncc2Cl)cc1`: the GI50 worked out at 7.02 µM.
As for `CCN1CCN(c2ccc(Nc3ncc(Cl)c(Nc4ccccc4C)n3)cc2)CC1`, the GI50 was determined as 3.04 µM.
`Cc1ccccc1Nc1nc(Nc2ccc(N3CCCN(C)CC3)cc2)ncc1Cl`: the GI50 amounted to 6.39 µM.
On to `CN1CCN(c2ccc(Nc3ncc(Cl)c(NCc4ccc(C(F)(F)F)cc4)n3)nc2)CC1`, for which the GI50 was determined as 19.1 µM.
Still for that read-out and setting: as for `COc1ccccc1CNc1nc(Nc2ccc(N3CCN(C)CC3)cn2)ncc1Cl`, the figure is 29.3 µM.
Turning to `CN1CCN(c2ccc(Nc3ncc(Cl)c(NCc4ccco4)n3)nc2)CC1`, the GI50 was determined as 11 µM.
Consider `CN1CCN(c2ccc(Nc3ncc(Cl)c(NCc4ccc(F)cc4)n3)nc2)CC1`, for which the GI50 is over 100 µM.
Consider `CN1CCN(c2ccc(Nc3ncc(Cl)c(NCCc4ccccc4F)n3)nc2)CC1`, for which the GI50 is over 100 µM.
Same read-out and setting: as for `Cc1ccccc1Nc1nc(Nc2cccnc2)ncc1Cl`, the figure is 41.2 µM; as for `Cc1ccccc1Nc1nc(NCCc2ccccn2)ncc1Cl`, over 100 µM.
Turning to `CN1CCN(c2ccc(Nc3ncc(Cl)c(NCc4ccccc4)n3)nc2)CC1`, the GI50 came to 24.8 µM.
As for `Cc1ccccc1Nc1nc(NC2CCCCC2)ncc1Cl`, the GI50 is over 100 µM.
On to `Cc1ccccc1Nc1nc(Nc2ccc(N3CCCCC3)cc2)ncc1Cl`, for which the GI50 was found to be 19.9 µM.

For another data set, the target named is CDK9/Cyclin K (Homo sapiens, UniProt P50750). Description: biochemical.
CDK9/Cyclin K, sequence (P50750 whole entry): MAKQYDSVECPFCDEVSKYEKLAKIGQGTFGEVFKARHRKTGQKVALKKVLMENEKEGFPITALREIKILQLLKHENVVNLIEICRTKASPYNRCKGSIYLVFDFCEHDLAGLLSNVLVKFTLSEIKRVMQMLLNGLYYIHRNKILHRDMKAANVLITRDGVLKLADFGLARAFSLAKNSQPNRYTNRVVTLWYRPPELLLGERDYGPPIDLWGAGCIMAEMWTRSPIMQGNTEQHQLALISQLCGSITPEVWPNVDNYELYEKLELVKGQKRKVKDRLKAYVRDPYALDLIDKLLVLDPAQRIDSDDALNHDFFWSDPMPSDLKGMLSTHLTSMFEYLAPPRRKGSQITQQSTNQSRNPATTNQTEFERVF
CDK9/Cyclin K, sequence (O75909 whole entry, further chain): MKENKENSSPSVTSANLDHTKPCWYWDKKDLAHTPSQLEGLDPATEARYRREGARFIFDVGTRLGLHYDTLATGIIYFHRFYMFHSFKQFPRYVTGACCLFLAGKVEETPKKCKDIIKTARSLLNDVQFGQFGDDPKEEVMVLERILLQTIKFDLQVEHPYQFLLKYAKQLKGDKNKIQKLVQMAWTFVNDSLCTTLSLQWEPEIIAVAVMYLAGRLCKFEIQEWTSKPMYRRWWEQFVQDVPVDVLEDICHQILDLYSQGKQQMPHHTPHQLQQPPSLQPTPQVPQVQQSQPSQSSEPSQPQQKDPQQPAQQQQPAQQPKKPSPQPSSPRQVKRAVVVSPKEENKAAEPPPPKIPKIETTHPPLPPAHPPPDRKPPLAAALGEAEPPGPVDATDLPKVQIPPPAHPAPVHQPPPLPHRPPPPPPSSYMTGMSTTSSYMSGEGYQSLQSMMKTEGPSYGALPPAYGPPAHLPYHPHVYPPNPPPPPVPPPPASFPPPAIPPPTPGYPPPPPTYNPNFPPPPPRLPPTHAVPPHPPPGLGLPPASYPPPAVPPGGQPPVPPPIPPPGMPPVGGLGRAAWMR
Conditions: not given
The molecule `Cc1ccccc1Nc1nc(Nc2ccc(N3CCN(C)CC3)cc2)ncc1Cl` showed an IC50 of 0.434 µM.
On the same count and under the same terms, to `CC(C)c1ccc(Nc2nc(Nc3ccc(N4CCN(C)CC4)cn3)ncc2Cl)cc1` belongs 9.17 µM; to `CCN1CCN(c2ccc(Nc3ncc(Cl)c(Nc4ccccc4C)n3)cc2)CC1`, 0.751 µM.
`Cc1ccccc1Nc1nc(Nc2ccc(N3CCCN(C)CC3)cc2)ncc1Cl` displayed an IC50 of 0.88 µM. The IC50 values of the last two molecules are within 1.5-fold of each other.
For `CN1CCN(c2ccc(Nc3ncc(Cl)c(NCc4ccc(C(F)(F)F)cc4)n3)nc2)CC1`, the IC50 was over 10 µM.
In turn, `COc1ccccc1CNc1nc(Nc2ccc(N3CCN(C)CC3)cn2)ncc1Cl` had an IC50 of over 10 µM.
Still for that read-out and setting: as for `CN1CCN(c2ccc(Nc3ncc(Cl)c(NCc4ccco4)n3)nc2)CC1`, the figure is over 10 µM; as for `CN1CCN(c2ccc(Nc3ncc(Cl)c(NCc4ccc(F)cc4)n3)nc2)CC1`, over 10 µM.
`CN1CCN(c2ccc(Nc3ncc(Cl)c(NCCc4ccccc4F)n3)nc2)CC1`: the IC50 is over 10 µM.
The molecule `Cc1ccccc1Nc1nc(Nc2cccnc2)ncc1Cl` displayed an IC50 of 3.43 µM.
Consider `Cc1ccccc1Nc1nc(NCCc2ccccn2)ncc1Cl`, for which the IC50 is over 10 µM.
The same measure, in the same setting: as for `CN1CCN(c2ccc(Nc3ncc(Cl)c(NCc4ccccc4)n3)nc2)CC1`, the figure is over 10 µM; as for `Cc1ccccc1Nc1nc(NC2CCCCC2)ncc1Cl`, over 10 µM; as for `Cc1ccccc1Nc1nc(Nc2ccc(N3CCCCC3)cc2)ncc1Cl`, over 10 µM.

The target in the next data set is CDK2/Cyclin A2 (Homo sapiens, UniProt P24941).
Assay: not given
The arrangement: species or system Sf9.
Conditions: not given
As to `Cc1ccccc1Nc1nc(Nc2ccc(N3CCN(C)CC3)cc2)ncc1Cl`, half-maximal inhibition (IC50) was put at 1.19 µM.
Molecule `CC(C)c1ccc(Nc2nc(Nc3ccc(N4CCN(C)CC4)cn3)ncc2Cl)cc1` showed an IC50 of over 10 µM.
Molecule `CCN1CCN(c2ccc(Nc3ncc(Cl)c(Nc4ccccc4C)n3)cc2)CC1` showed an IC50 of 0.718 µM.
Turning to `Cc1ccccc1Nc1nc(Nc2ccc(N3CCCN(C)CC3)cc2)ncc1Cl`, the IC50 stood at 1.59 µM.
Turning to `CN1CCN(c2ccc(Nc3ncc(Cl)c(NCc4ccc(C(F)(F)F)cc4)n3)nc2)CC1`, the IC50 was over 10 µM.
`COc1ccccc1CNc1nc(Nc2ccc(N3CCN(C)CC3)cn2)ncc1Cl` came in with an IC50 of over 10 µM.
The same measure, in the same setting: to `CN1CCN(c2ccc(Nc3ncc(Cl)c(NCc4ccco4)n3)nc2)CC1` belongs over 10 µM; to `CN1CCN(c2ccc(Nc3ncc(Cl)c(NCc4ccc(F)cc4)n3)nc2)CC1`, over 10 µM.
For `CN1CCN(c2ccc(Nc3ncc(Cl)c(NCCc4ccccc4F)n3)nc2)CC1`, the IC50 was over 10 µM.
`Cc1ccccc1Nc1nc(Nc2cccnc2)ncc1Cl`: the IC50 came to 0.03 µM.
`Cc1ccccc1Nc1nc(NCCc2ccccn2)ncc1Cl` yielded an IC50 of over 10 µM.
For `CN1CCN(c2ccc(Nc3ncc(Cl)c(NCc4ccccc4)n3)nc2)CC1`, the IC50 was over 10 µM.
On to `Cc1ccccc1Nc1nc(NC2CCCCC2)ncc1Cl`, for which the IC50 was over 10 µM.
The molecule `Cc1ccccc1Nc1nc(Nc2ccc(N3CCCCC3)cc2)ncc1Cl` returned an IC50 of 3.69 µM.
